Measured values as given in patent US20230381134A1, “COCRYSTALS OF CANNABINOIDS” (PURISYS, LLC, priority 2020, published 2023).

Experiments:
[1] = solid, ambient conditions / storage
Description: PXRD diffractograms were acquired on a PANalytical X'Pert Pro diffractometer using Ni-filtered Cu Ka (45 kV/40 mA) radiation and a step size of 0.03° 2θ and X'celerator™ RTMS (Real Time Multi-Strip) detector. Configuration on the incidental beam side: variable divergence slits (10 mm irradiated length), 0.04 rad Soller slits, fixed anti-scatter slit (0.50°), and 10 mm beam mask. Configuration on the diffracted beam side: variable anti-scatter slit (10 mm observed length) and 0.04 rad Soller slit. Samples were mounted flat on zero-background Si wafers.
PXRD diffractograms were acquired on a Bruker D8 Advance system (SN:2631) using Cu Ka (40 kV/40 mA) radiation and a step size of 0.03° 2θ and LynxEye detector. Configuration on the incident beam side: Goebel mirror, mirror exit slit (0.2 mm), 2.5 deg Soller slits, beam knife. Configuration on the diffracted beam side: anti-scatter slit (8 mm) and 2.5 deg. Soller slit. Samples were mounted flat on zero-background Si wafers.

[2] = target: CB1 receptor (Homo sapiens, UniProt P21554); settings: cited from earlier work
[3] = target: cannabinoid G-protein coupled receptor CB2 (Homo sapiens, UniProt P34972); settings: cited from earlier work
[4] = Solubility of the cannabinol starting material in various solvents

Chain of cannabinoid G-protein coupled receptor CB2 (P34972 whole entry): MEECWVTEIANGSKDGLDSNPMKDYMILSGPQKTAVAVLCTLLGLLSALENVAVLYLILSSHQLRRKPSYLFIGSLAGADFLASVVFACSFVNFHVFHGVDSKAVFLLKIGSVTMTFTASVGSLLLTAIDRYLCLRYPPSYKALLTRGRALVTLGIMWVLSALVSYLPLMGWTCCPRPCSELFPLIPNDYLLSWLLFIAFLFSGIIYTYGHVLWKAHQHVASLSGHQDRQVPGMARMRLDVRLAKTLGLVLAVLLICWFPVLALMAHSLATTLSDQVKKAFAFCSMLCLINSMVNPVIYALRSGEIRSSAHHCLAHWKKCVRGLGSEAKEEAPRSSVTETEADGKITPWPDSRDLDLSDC
Chain of CB1 receptor (P21554 whole entry): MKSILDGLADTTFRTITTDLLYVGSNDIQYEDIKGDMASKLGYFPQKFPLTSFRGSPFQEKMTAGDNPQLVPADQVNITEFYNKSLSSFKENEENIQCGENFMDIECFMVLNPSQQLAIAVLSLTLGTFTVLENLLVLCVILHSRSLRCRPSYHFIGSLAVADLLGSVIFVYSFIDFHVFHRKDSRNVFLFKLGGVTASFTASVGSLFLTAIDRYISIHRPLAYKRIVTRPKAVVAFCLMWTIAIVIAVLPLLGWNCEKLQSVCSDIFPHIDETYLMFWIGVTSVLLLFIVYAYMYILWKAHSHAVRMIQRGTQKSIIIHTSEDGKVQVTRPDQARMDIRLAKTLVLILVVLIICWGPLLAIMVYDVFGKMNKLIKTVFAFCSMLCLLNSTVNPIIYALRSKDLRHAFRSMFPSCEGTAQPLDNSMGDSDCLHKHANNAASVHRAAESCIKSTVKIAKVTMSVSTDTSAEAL

SMILES | physical stability by PXRD [1] | affinity for CB1 [2] | binding to CB2 [3] | affinity for CB2 receptor relative to THC (fold lower) ([3]; relative to THC) | solubility ([4]; water (1% methanol)) | solubility ([4]; water (1% methanol), 40 °C) | solubility ([4]; water (denatured with 1% MeOH))
CCCCCc1cc(O)c2c(c1)OC(C)(C)c1ccc(C)cc1-2.O=C(O)C1CCCN1 [Mono-L-Proline Cocrystal Group C] | physically stable by PXRD for three days at ambient | – | – | – | – | – | –
CCCCCc1cc(O)c2c(c1)OC(C)(C)c1ccc(C)cc1-2 [cannabinol, 6,6,9-Trimethyl-3-pentyl-benzo[c]chromen-1-ol] | – | minimal affinity | preferentially binds | about 3 fold | < 20 mg/mL | < 20 mg/mL | < 20 mg/mL
